EP0216105A1, “Diazaphosphorines, process for their preparation and their use as pesticide” (priority 1985, dated 1987)

How the values were obtained:
Caenorhabditis elegans = assay: In vitro nematode test; conditions: concentration at which reproduction is prevented, 7 days at 22°C; for minimal effective concentration: Caenorhabditis elegans, 168 h, read-out: Dosis effectiva
Method: 10-^4 g Wirkstoff wurden in 1 ml Wasser oder 0,1 ml Dimethylsulfoxid (DMSO) gelöst. Diese Lösung wurde auf eine Replica-Platte gegeben. Dazu wurden 2 ml einer E-coli-Suspension gegeben, in der man 10-20 weibliche Tiere oder Larven von Caenorhabditis elegans in 0,5 ml M9 Pufferlösung gegeben hat. Die E-coli-Suspension wurde hergestellt indem man 300 ml einer Ubernachthalter eines Uracil-bedürftigen E-coli-Stammes mit 1,8 1 steriler M 9 Pufferlösung versetzte.
Der Versuchsansatz wurde 7 Tage bei 22°C inkubiert und danach ausgewertet. Es wurde bewertet inwieweit der Wirkstoff die Vermehrung beeinträchtigt und die Konzentration angegeben bei der die Vermehrung verhindert wird.

[1] = tested on: Mückenlarven (L4) (Aedes aegypti); assay: Aedes test (larvae in aqueous preparation); format: in vivo; conditions: 20 Aedes aegypti larvae (L4) per glass; compared with the prior art; figures not given
Source text: • Löcungcmittal: 3 Gewichtsteile Aceton • Emulgator: 1 Gewichtsteil Alkylarylpolyglykolether
Zur Herstellung einer zweckmäßigen Wirkstoffzubereitung vermischt man 1 Gawichtcteil Wirkstoff mit der angegebenen Menge Löcungcmittel und der angegebenen Menge Emulgator und verdünnt das Konzentrat mit Wasser auf die gewünschte Konzentrationen.
Man füllt die wässrigen Wirkctoffzubereitungen in Gläser und setzt anschließend 20 Mückenlarven (L4) (Aedes aegypti) in jedes Glas ein.
Nach der gewünschten Zeit wird die Abtötung in % bestimmt. Dabei bedeutet 100 X, daß alle Tiere abgetötet wurden; 0 % bedeutet, daß keine Tiere abgetötet wurden.

[2] = tested on: Musca domestica-tmultiresistent) Maden; assay: Fly maggot development inhibition test; format: in vivo; conditions: Musca domestica maggots on treated filter paper, 14 days; compared with the prior art; figures not given
Method: Fliegenmaden-Entwicklungshommungstest Testtiere: Musca domestica-tmultiresistent) Maden Lösungsmittel: Aceton
2 Gewichtsteile Wirkstoff werden in 1 000 Volumenteilen Lösungsmittel aufgenommen. Die so erhaltene Lösung wird mit weiteren Lösungsmitteln auf die gewünschten Konzentrationen verdünnt.
2,5 ml Wirkstofflösung werden in eine Petrischale pipettiert. Auf dem Boden der Petrischale befindet sich ein Filterpapier mit einem Durchmesser von etwa 9,5 cm. Die Petrischale bleibt so lange offen stehen, bis das Lösungsmittel vollständig verdunstet ist. Je nach Konzentration der Wirkstofflösung ist die Menge Wirkstoff pro m^2 Filterpapier verschieden hoch. Anschließend gibt man etwa 25 Testtiere in die Petrischale und bedeckt sie mit einem Glasdeckel.
14 Tage nach Ansetzen der Versuche wird die Zahl der geschlüpften Fliegen kontrolliert. Bestimmt wird der X-Satz der Schlüpfhemmung im Vergleich zur unbehandelten Kontrolle.

[3] = tested on: Larven (L3) des Meerrettichkäfers (Phaedon cochleariae); assay: Phaedon larvae test (treated cabbage leaves); format: in vivo; conditions: Phaedon cochleariae larvae (L3) on treated Brassica oleracea leaves; compared with the prior art; figures not given
Source text: (§1) • Lösungsmittel: 3 Gewichtsteile Aceton • Emulgator: 1 Gewichtsteil Alkylarylpolyglykolether
Zur Herstellung einer zweckmäßigen Wirkstoffzubereitung vermischt man 1 Gewichtsteil Wirkstoff mit der angegebenen Menge Lösungsmittel und der angegebenen Menge Emulgator und verdünnt das.Konzentrat mit Wasser auf die gewünschte Konzentration.
Kohlpflanzen (Brassica oleracea) werden mit der Wirkstoffzubereitung der gewünschten Konzentration behandelt. Ein Blatt der behandelten Pflanze wird in eine Plastikdose gelegt und mit Larven (L3) des Meerrettichkäfers (Phaedon cochleariae) besetzt. Nach 2 und 4 Tagen wird jeweils ein weiters Blatt von derselben Pflanze für die Nachfütterung verwendet.
Nach der gewünschten Zeit wird die Abtötung in % bestimmt. Dabei bedeutet 100 X, daß alle Käferlarven abgetötet wurden.

[4] = tested on: Lucilia cuprina res.-Larven; assay: Test with resistant Lucilia cuprina larvae; format: in vivo; conditions: horse meat, after 24 hours, compared with the prior art, figures not given
Source text: Test mit Lucilia cuprina resistent-Larven
• Emulgator: 35 Gewichtsteile Ethylenglykolmonomethylether • 35 Gewichtsteile Nonylphenolpolyglykolether
Zur Herstellung einer zweckmäßigen Wirkstoffzubereitung vermischt man drei Gewichtsteile Wirkstoff mit sieben Gewichtsteilen des oben angegebenen Gemisches und verdünnt das so erhaltene Konzentrat mit Wasser auf die jeweils gewünschte Konzentration.
Etwa 20 Lucilia cuprina res.-Larven werden in ein Teströhrchen gebracht, welches ca. 1 cm^3 Pferdefleisch und O,5 ml der Wirkstoffzubereitung enthält. Nach 24 Stunden wird der Abtötungsgrad bestimmt.

[5] = tested on: Raupe (L5) der Art Spodoptera frugiperda; assay: Spodoptera test (treated artificial diet discs); format: in vivo; conditions: Spodoptera frugiperda caterpillars (L5) on treated artificial diet; compared with the prior art; figures not given
Source text: as §1
Zur Herstellung einer zweckmäßigen Wirkstoffzubereitung vermischt man 1 Gewichtsteil Wirkstoff mit der angegebenen Menge Lösungsmittel und der angegebenen Menge Emulgator und verdünnt das Konzentrat mit Wasser auf die gewünschte Konzentrationen.
Kunstfutterscheiben, die in Plastikdosen liegen, werden durch Beträufeln mit der Wirkstoffzubereitung der gewünschten Konzentration behandelt. Nach Eindringen der Lösung besetzt man die Plastikdosen mit je 1 Raupe (L5) der Art Spodoptera frugiperda, wobei je Versuchsglied 5 Wiederholungen aufgestellt werden. Nach der Verpuppung legt man die Tiere eines Versuchsglieds in eine größere Dose. Nach der gewünschten Zeit wird die Abtötung in % bestimmt. Dabei bedeutet 100 X, daß alle Tiere abgetötet wurden; 0 X bedeutet, daß keine Tiere abgetötet wurden.

Structure (SMILES)	minimal effective concentration (Caenorhabditis elegans) [µg/mL]	further results
CN1C(=O)C(C(=O)Nc2ccc([N+](=O)[O-])cc2)C(=O)N(C)P1(=O)Oc1ccc(Cl)cc1 (centres unmarked) [Beispiel 4]	10	–
CN1C(=O)C(C(=O)Nc2ccc(S(=O)(=O)C(F)(F)F)cc2)C(=O)N(C)P1(=O)Oc1ccc(Cl)cc1 (centres unmarked) [Beispiel 5]	–	Dosis effectiva (Caenorhabditis elegans): 10 mg/L
CN1C(=O)C(C(=O)Nc2ccc(Cl)c(C(F)(F)F)c2)C(=O)N(C)P1(=S)Oc1ccc(Cl)cc1 (centres unmarked) [Beispiel 6]	10	Abtötung in % [1]: überlegene Wirksamkeit gegenüber dem Stand der Technik; X-Satz der Schlüpfhemmung im Vergleich zur unbehandelten Kontrolle [2]: überlegene Wirksamkeit gegenüber dem Stand der Technik
CN1C(=O)C(C(=O)Nc2ccc(SC(F)(F)F)cc2)C(=O)N(C)P1(=O)Oc1ccc(Cl)cc1 (centres unmarked) [Beispiel 8]	–	Abtötung in % [1]: überlegene Wirksamkeit gegenüber dem Stand der Technik; Abtötung in % [3]: überlegene Wirksamkeit gegenüber dem Stand der Technik; Dosis effectiva (Caenorhabditis elegans): 10 mg/L; Abtötungsgrad [4]: überlegene Wirkung gegenüber dem Stand der Technik
CN1C(=O)C(C(=O)Nc2ccc(SC(F)(F)F)cc2)C(=O)N(C)P1(=O)Oc1ccccc1 (centres unmarked) [Beispiel 10]	10	Abtötung in % [1]: überlegene Wirksamkeit gegenüber dem Stand der Technik; Abtötung in % [3]: überlegene Wirksamkeit gegenüber dem Stand der Technik; Abtötung in % [5]: überlegene Wirksamkeit gegenüber dem Stand der Technik
CN1C(=O)C(C(=O)Nc2ccccc2SC(F)(F)F)C(=O)N(C)P1(=O)Oc1ccccc1 (centres unmarked) [Beispiel 11]	100	–
CN1C(=O)C(C(=O)Nc2ccc(S(=O)(=O)C(F)(F)F)cc2)C(=O)N(C)P1(=O)Oc1ccccc1 (centres unmarked) [Beispiel 13]	10	–
CN1C(=O)C(C(=O)Nc2ccc(OC(F)(F)C(F)F)cc2)C(=O)N(C)P1(=O)Oc1ccccc1 (centres unmarked) [Beispiel 15]	10	Abtötung in % [3]: überlegene Wirksamkeit gegenüber dem Stand der Technik
CN1C(=O)C(C(=O)Nc2ccc(OC(F)(F)F)cc2)C(=O)N(C)P1(=O)Oc1ccccc1 (centres unmarked) [Beispiel 16]	10	Abtötung in % [1]: überlegene Wirksamkeit gegenüber dem Stand der Technik; Abtötung in % [3]: überlegene Wirksamkeit gegenüber dem Stand der Technik; Abtötung in % [5]: überlegene Wirksamkeit gegenüber dem Stand der Technik
CN1C(=O)C(C(=O)Nc2ccc(OC(F)(F)F)cc2)C(=O)N(C)P1(=O)Oc1ccc(Cl)cc1 (centres unmarked) [Beispiel 17]	10	Abtötung in % [5]: überlegene Wirksamkeit gegenüber dem Stand der Technik
CN1C(=O)C(C(=O)Nc2ccc([N+](=O)[O-])cc2)C(=O)N(C)P1(=O)Oc1ccc([N+](=O)[O-])cc1 (centres unmarked) [Beispiel 18]	100	–
COc1ccc(NC(=O)C2C(=O)N(C)P(=O)(Oc3ccc(OC)cc3)N(C)C2=O)cc1 (centres unmarked) [Beispiel 19]	100	–
COc1ccc(NC(=O)C2C(=O)N(C)P(=O)(Oc3ccc(C)cc3)N(C)C2=O)cc1 (centres unmarked) [Beispiel 20]	10	–
CN1C(=O)C(C(=O)Nc2ccc(S(=O)(=O)C(F)(F)F)cc2)C(=O)N(C)P1(=O)Oc1ccc(Cl)cc1 (centres unmarked) [Beispiel 26]	–	Abtötung in % [1]: überlegene Wirksamkeit gegenüber dem Stand der Technik; Dosis effectiva (Caenorhabditis elegans): 100 mg/L; Abtötungsgrad [4]: überlegene Wirkung gegenüber dem Stand der Technik; X-Satz der Schlüpfhemmung im Vergleich zur unbehandelten Kontrolle [2]: überlegene Wirksamkeit gegenüber dem Stand der Technik
CN1C(=O)C(C(=O)Nc2ccc(OC(F)(F)F)cc2)C(=O)N(C)P1(=S)Oc1ccc(Cl)cc1 (centres unmarked) [Beispiel 30]	10	Abtötung in % [5]: überlegene Wirksamkeit gegenüber dem Stand der Technik; X-Satz der Schlüpfhemmung im Vergleich zur unbehandelten Kontrolle [2]: überlegene Wirksamkeit gegenüber dem Stand der Technik
CN1C(=O)C(C(=O)Nc2ccc(SC(F)(F)F)cc2)C(=O)N(C)P1(=S)Oc1ccccc1 (centres unmarked) [Beispiel 33]	10	Abtötungsgrad [4]: überlegene Wirkung gegenüber dem Stand der Technik
CN1C(=O)C(C(=O)Nc2ccc(SC(F)(F)F)cc2)C(=O)N(C)P1(=S)Oc1ccc(Cl)cc1 (centres unmarked) [Beispiel 34]	100	Abtötung in % [5]: überlegene Wirksamkeit gegenüber dem Stand der Technik; Abtötungsgrad [4]: überlegene Wirkung gegenüber dem Stand der Technik

Structure (SMILES)	minimal effective concentration (Caenorhabditis elegans) [µg/mL]	further results
CN1C(=O)C(C(=O)Nc2ccc(SC(F)(F)F)cc2)C(=O)N(C)P1(=O)Oc1cccc(Cl)c1 (centres unmarked) [Beispiel 37]	10	–
CN1C(=O)C(C(=O)Nc2ccc(OC(F)(F)F)cc2)C(=O)N(C)P1(=O)Oc1cccc(Cl)c1 (centres unmarked) [Beispiel 38]	10	–
CC(C)N1C(=O)C(C(=O)Nc2ccc(C(F)(F)F)c(Cl)c2)C(=O)N(C)P1(=O)Oc1cccc(Cl)c1 (centres unmarked) [Beispiel 41]	10	Abtötungsgrad [4]: überlegene Wirkung gegenüber dem Stand der Technik
CC(C)N1C(=O)C(C(=O)Nc2ccc(SC(F)(F)F)cc2)C(=O)N(C)P1(=O)Oc1cccc(Cl)c1 (centres unmarked) [Beispiel 42]	10	–
CN1C(=O)C(C(=O)Nc2ccc(SC(F)(F)F)cc2)C(=O)N(c2ccccc2)P1(=O)Oc1ccccc1 (centres unmarked) [Beispiel 44]	10	–
CCN1C(=O)C(C(=O)Nc2ccc(Oc3ccc(C(F)(F)F)cc3)cc2)C(=O)N(C)P1(=O)Oc1cccc(Cl)c1 (centres unmarked) [Beispiel 46]	10	–
CC(C)N1C(=O)C(C(=O)Nc2ccc(C(F)(F)F)cc2C(F)(F)F)C(=O)N(Cc2ccccc2)P1(=O)Oc1cccc(Cl)c1 (centres unmarked) [Beispiel 51]	100	–
Cc1cccc(OP2(=O)N(C)C(=O)C(C(=O)Nc3ccc(SC(F)(F)F)cc3)C(=O)N2C(C)C)c1 (centres unmarked) [Beispiel 54]	10	–
CCN1C(=O)C(C(=O)Nc2ccc(C(F)(F)F)c(Cl)c2)C(=O)N(C)P1(=O)Oc1cccc(Cl)c1 (centres unmarked) [Beispiel 55]	10	–
CCN1C(=O)C(C(=O)Nc2ccc(C(F)(F)F)cc2C(F)(F)F)C(=O)N(C)P1(=O)Oc1cccc(Cl)c1 (centres unmarked) [Beispiel 56]	10	–
CCN1C(=O)C(C(=O)Nc2ccc(Cl)c(C(F)(F)F)c2)C(=O)N(C)P1(=O)Oc1cccc(Cl)c1 (centres unmarked) [Beispiel 57]	10	–
CCN1C(=O)C(C(=O)Nc2ccc(SC(F)(F)F)cc2)C(=O)N(C)P1(=O)Oc1cccc(Cl)c1 (centres unmarked) [Beispiel 58]	10	–
CCN1C(=O)C(C(=O)Nc2ccc(OC(F)(F)F)cc2)C(=O)N(C)P1(=O)Oc1cccc(Cl)c1 (centres unmarked) [Beispiel 59]	10	–
CCN1C(=O)C(C(=O)Nc2ccc(C(F)(F)F)c(C(F)(F)F)c2)C(=O)N(C)P1(=O)Oc1cccc(Cl)c1 (centres unmarked) [Beispiel 61]	10	–
CC(C)N1C(=O)C(C(=S)Nc2ccccc2)C(=O)N(C)P1(=O)Oc1cccc(Cl)c1 (centres unmarked) [Beispiel 62]	100	–
CC(C)N1C(=O)C(C(=O)Nc2ccc(SC(F)(F)F)c(Cl)c2)C(=O)N(C)P1(=O)Oc1cccc(Cl)c1 (centres unmarked) [Beispiel 64]	10	–
Cc1cccc(OP2(=O)N(C)C(=O)C(C(=O)Nc3ccc(Cl)c(C(F)(F)F)c3)C(=O)N2C(C)C)c1 (centres unmarked) [Beispiel 65]	10	–
